Results reported in patent publication US20090018166A1, “New Pyridine Analogues X 161” (ASTRAZENECA AB, priority 2007, published 2009).

The compounds below were run against T1, P2Y12 receptor (Homo sapiens, UniProt Q9H244) (assay: Functional inhibition of 2-Me-S-ADP induced P2Y12 signalling (35S-GTPγS binding, membranes from P2Y12 transfected CHO-cells)). Details: 35S-GTPγS, EC80 of 2-methyl-thio-adenosine diphosphate, P2Y12 CHO membranes; value given in each example; read-out: GTPγS(IC50 μM).
T1 construct: expressed in transfected cells; host or cells: CHO cells (membranes)
Assay type: biochemical
Experimental: Functional inhibition of- the P2Y12 receptor can be measured by in vitro assays using cell membranes from P2Y12 transfected CHO-cells, the methodology is indicated below.
Functional inhibition of 2-Me-S-ADP induced P2Y12 signalling: 5 μg of membranes were diluted in 200 μl of 200 mM NaCl, 1 mM MgCl2, 50 mM HEPES (pH 7.4), 0.01% BSA, 30 μg/ml saponin and 10 μM GDP. To this was added an EC80 concentration of agonist (2-methyl-thio-adenosine diphosphate), the required concentration of test compound and 0.1 μCi ^35S-GTPγS. The reaction was allowed to proceed at 30° C. for 45 min. Samples were then transferred on to GF/B filters using a cell harvester and washed with wash buffer (50 mM Tris (pH 7.4), 5 mM MgCl2, 50 mM NaCl). Filters were then covered with scintilant and counted for the amount of ^35S-GTPγS retained by the filter. Maximum activity was that determined in the presence of the agonist and minimum activity in the absence of the agonist following subtraction of the value determined for non-specific activity. The effect of compounds at various concentrations was plotted according to the equation
y=A+((B−A)/(1+((C/x)̂D)))
and IC50 estimated where A is the bottom plateau of the curve i.e. the final minimum y value B is the top of the plateau of the curve i.e. the final maximum y value C is the x value at the middle of the curve. This represents the log EC50 value when A+B=100 D is the slope factor. x is the original known x values. Y is the original known y values.

T1 sequence (Q9H244 whole entry): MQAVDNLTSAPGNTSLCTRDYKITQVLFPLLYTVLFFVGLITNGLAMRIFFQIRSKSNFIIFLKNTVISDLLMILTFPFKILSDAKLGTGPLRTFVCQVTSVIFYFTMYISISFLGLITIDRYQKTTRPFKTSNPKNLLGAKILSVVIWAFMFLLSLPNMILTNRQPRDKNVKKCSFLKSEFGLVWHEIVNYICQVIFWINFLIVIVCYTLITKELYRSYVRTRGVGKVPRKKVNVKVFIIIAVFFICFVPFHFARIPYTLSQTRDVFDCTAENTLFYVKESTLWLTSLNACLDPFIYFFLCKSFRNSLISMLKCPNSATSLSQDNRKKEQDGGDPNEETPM

Compound | IC50
C=CCCC(=O)c1cc(Cl)c(N2CCC(C(=O)NS(=O)(=O)N(C)c3ccc(F)cc3)CC2)nc1CN1CCCC1=O [Example 50, 1-{3-chloro-6-[(2-oxopyrrolidin-1-yl)methyl]-5-pent-4-enoylpyridin-2-yl}-N-{[(4-fluorophenyl)(methyl)amino]sulfonyl}piperidine-4-carboxamide] | 0.167 µM
CCCC(=O)c1cc(Cl)c(N2CCC(C(=O)NS(=O)(=O)CC3CCCCC3)CC2)nc1CN1CCCC1=O [Example 52, 1-{5-butyryl-3-chloro-6-[(2-oxopyrrolidin-1-yl)methyl]pyridin-2-yl}-N-[(cyclohexylmethyl)sulfonyl]piperidine-4-carboxamide] | 0.231 µM
CCCCC(=O)c1cc(Cl)c(N2CCC(C(=O)NS(=O)(=O)CC3CCCC3)CC2)nc1CN1CCCC1=O [Example 54, 1-{3-chloro-6-[(2-oxopyrrolidin-1-yl)methyl]-5-pentanoylpyridin-2-yl}-N-[(cyclopentylmethyl)sulfonyl]piperidine-4-carboxamide] | 0.938 µM
N#Cc1cc(C(=O)CCC(F)(F)F)c(CN2CCCC2=O)nc1N1CCC(C(=O)NS(=O)(=O)Cc2ccccc2)CC1 [Example 58, N-(benzylsulfonyl)-1-{3-cyano-6-[(2-oxopyrrolidin-1-yl)methyl]-5-(4,4,4-trifluorobutanoyl)pyridin-2-yl}piperidine-4-carboxamide] | 0.084 µM
CCCCC(=O)c1cc(Cl)c(N2CCC(C(=O)NS(=O)(=O)C(C)c3ccccc3)CC2)nc1CN1CCCC1=O (stereo not drawn) [Example 60, 1-{3-chloro-6-[(2-oxopyrrolidin-1-yl)methyl]-5-pentanoylpyridin-2-yl}-N-[(1-phenylethyl)sulfonyl]piperidine-4-carboxamide] | 0.268 µM
CCCCC(=O)c1cc(C#N)c(N2CCC(C(=O)NS(=O)(=O)C(C)c3ccccc3)CC2)nc1CN1CCCC1=O (stereo not drawn) [Example 61, 1-{3-cyano-6-[(2-oxopyrrolidin-1-yl)methyl]-5-pentanoylpyridin-2-yl}-N-[(1-phenylethyl)sulfonyl]piperidine-4-carboxamide] | 0.033 µM
CCc1cnc(-c2cc(C#N)c(N3CCC(C(=O)NS(=O)(=O)N(C)c4ccc(F)cc4)CC3)nc2CN2CCCC2=O)o1 [Example 62, 1-{3-cyano-5-(5-ethyl-1,3-oxazol-2-yl)-6-[(2-oxopyrrolidin-1-yl)methyl]pyridin-2-yl}-N-{[(4-fluorophenyl)(methyl)amino]sulfonyl}piperidine-4-carboxamide] | 0.03 µM
CCc1cnc(-c2cc(C#N)c(N3CCC(C(=O)NS(=O)(=O)Cc4ccccc4)CC3)nc2CN2CCCC2=O)o1 [Example 63, N-(benzylsulfonyl)-1-{3-cyano-5-(5-ethyl-1,3-oxazol-2-yl)-6-[(2-oxopyrrolidin-1-yl)methyl]pyridin-2-yl}piperidine-4-carboxamide] | 0.021 µM
CCc1cnc(-c2cc(Cl)c(N3CCC(C(=O)NS(=O)(=O)N(C)c4ccc(F)cc4)CC3)nc2CN2CCCC2=O)o1 [Example 64, 1-{3-chloro-5-(5-ethyl-1,3-oxazol-2-yl)-6-[(2-oxopyrrolidin-1-yl)methyl]pyridin-2-yl}-N-{[(4-fluorophenyl)(methyl)amino]sulfonyl}piperidine-4-carboxamide] | 0.45 µM
CCc1cnc(-c2cc(Cl)c(N3CCC(C(=O)NS(=O)(=O)Cc4ccccc4)CC3)nc2CN2CCCC2=O)o1 [Example 65, N-(benzylsulfonyl)-1-{3-chloro-5-(5-ethyl-1,3-oxazol-2-yl)-6-[(2-oxopyrrolidin-1-yl)methyl]pyridin-2-yl}piperidine-4-carboxamide] | 0.17 µM
CCCC(=O)c1cc(Cl)c(N2CCC(C(=O)NS(=O)(=O)N(C)c3ccc(F)cc3)CC2)nc1CN1CCCCC1=O [Example 67, 1-{5-Butyryl-3-chloro-6-[(2-oxopiperidin-1-yl)methyl]pyridin-2-yl}-N-{[(4-fluorophenyl)(methyl)amino]sulfonyl}piperidine-4-carboxamide] | 0.445 µM
CCCC(=O)c1cc(Cl)c(N2CCC(C(=O)N(C)S(=O)(=O)N(C)c3ccc(F)cc3)CC2)nc1CN1CCCC1=O [Example 69, 1-{5-Butyryl-3-chloro-6-[(2-oxopyrrolidin-1-yl)methyl]pyridin-2-yl}-N-{[(4-fluorophenyl)(methyl)amino]sulfonyl}-N-methylpiperidine-4-carboxamide] | 3.67 µM
CCCC(=O)c1cc(C#N)c(N2CCC(C(=O)N(C)S(=O)(=O)CC3CCCC3)CC2)nc1CN1CCCC1=O [Example 70, 1-{5-Butyryl-3-cyano-6-[(2-oxopyrrolidin-1-yl)methyl]pyridin-2-yl}-N-[(cyclopentylmethyl)sulfonyl]-N-methylpiperidine-4-carboxamide] | 0.903 µM

Next, values leading:

IC50 | Compound
0.031 µM | CCCCC(=O)c1cc(C#N)c(N2CCC(C(=O)NS(=O)(=O)Cc3ccc(C(C)C)cc3)CC2)nc1CN1CCCC1=O [Example 49, 1-{3-cyano-6-[(2-oxopyrrolidin-1-yl)methyl]-5-pentanoylpyridin-2-yl}-N-[(4-isopropylbenzyl)sulfonyl]piperidine-4-carboxamide]
0.069 µM | C=CCCC(=O)c1cc(Cl)c(N2CCC(C(=O)NS(=O)(=O)Cc3ccccc3)CC2)nc1CN1CCCC1=O [Example 51, N-(benzylsulfonyl)-1-{3-chloro-6-[(2-oxopyrrolidin-1-yl)methyl]-5-pent-4-enoylpyridin-2-yl}piperidine-4-carboxamide]
0.032 µM | CCCC(=O)c1cc(Cl)c(N2CCC(C(=O)NS(=O)(=O)Cc3ccc(F)cc3F)CC2)nc1CN1CCCC1=O [Example 53, 1-{5-butyryl-3-chloro-6-[(2-oxopyrrolidin-1-yl)methyl]pyridin-2-yl}-N-[(2,4-difluorobenzyl)sulfonyl]piperidine-4-carboxamide]
0.226 µM | CCCCC(=O)c1cc(Cl)c(N2CCC(C(=O)NS(=O)(=O)Cc3ccc(F)cc3F)CC2)nc1CN1CCCC1=O [Example 55, 1-{3-chloro-6-[(2-oxopyrrolidin-1-yl)methyl]-5-pentanoylpyridin-2-yl}-N-[(2,4-difluorobenzyl)sulfonyl]piperidine-4-carboxamide]
0.247 µM | CCCCC(=O)c1cc(Cl)c(N2CCC(C(=O)NS(=O)(=O)N(C)c3ccc(F)cc3)CC2)nc1CN1CCCC1=O [Example 56, 1-{3-chloro-6-[(2-oxopyrrolidin-1-yl)methyl]-5-pentanoylpyridin-2-yl}-N-{[(4-fluorophenyl)(methyl)amino]sulfonyl}piperidine-4-carboxamide]
0.079 µM | CCCCC(=O)c1cc(Cl)c(N2CCC(C(=O)NS(=O)(=O)Cc3ccccc3)CC2)nc1CN1CCCC1=O [Example 57, N-(benzylsulfonyl)-1-{3-chloro-6-[(2-oxopyrrolidin-1-yl)methyl]-5-pentanoylpyridin-2-yl}piperidine-4-carboxamide]
0.132 µM | CCCCC(=O)c1cc(Cl)c(N2CCC(C(=O)NS(=O)(=O)Cc3ccc(Cl)cc3)CC2)nc1CN1CCCC1=O [Example 59, N-[(4-chlorobenzyl)sulfonyl]-1-{3-chloro-6-[(2-oxopyrrolidin-1-yl)methyl]-5-pentanoylpyridin-2-yl}piperidine-4-carboxamide]
0.252 µM | CCCC(=O)c1cc(Cl)c(N2CCC(C(=O)NS(=O)(=O)Cc3ccccc3)CC2)nc1CN1CCCCC1=O [Example 66, N-(benzylsulfonyl)-1-{5-butyryl-3-chloro-6-[(2-oxopiperidin-1-yl)methyl]pyridin-2-yl}piperidine-4-carboxamide]
